Results taken from US4582934A, “Alpha,alpha-dimethylphenylacetanilide derivatives, process for production thereof, and use thereof as insecticide” (Yashima Chemical Industrial Co., Ltd., priority 1983, dated 1986).
Converted amounts (≈) assume the structure as drawn. Like-named read-outs stand apart in the source and are kept apart here.

Assays:
Assay type in all cases: in vivo
[1] = test system: Resistant Plutella xylostella; experiment: Field test on Plutella xylostella (cabbage, spray); conditions: larvae per 10 heads of cabbage, not sprayed = 100
Experimental: Field test on Plutella xylostella:
On predetermined dates, the number of larvae per 10 heads of cabbage was examined, and the corrected density indices of the test compounds were calculated in accordance with the following equation. [formula]

[2] = test system: Sensitive Plutella xylostella; experiment: Indoor test on 3rd-instar larvae of Plutella xylostella, sensitive insects (cabbage leaf dip); conditions: foliar, read-out: LC50 (50% lethal concentration)
Experimental: (§1) Indoor test on 3rd-instar larvae of Plutella xylostella:
(§2) A wettable powder prepared as in Formulation Example 2 was diluted to a predetermined concentration. Cabbage leaves were dipped for 10 seconds in the resulting dilution and then air dried. The leaves were put into a polyvinyl chloride cup having a capacity of 90 ml together with 3rd-instar larvae of Plutella xylostella. The cup was left to stand in a constant temperature chamber kept at 25° C., and 72 hours later, the number of dead insects was examined. For each test area, the test was repeated twice, and 20 insects were used in each area. The ratio of the dead insects was calculated, and LC50 (50% lethal concentration) values of the test compounds were determined by the method of Bliss.
(§3) The sensitive Plutella xylostella insects in the table were those bred through generations at the Laboratory of Yashima Chemical Industrial Co., Ltd. The resistant ones were hunted at Tsumakoi-mura, Gunma-ken, Japan.

[3] = test system: Resistant Plutella xylostella; experiment: Indoor test on 3rd-instar larvae of Plutella xylostella, resistant insects (cabbage leaf dip); conditions: foliar, read-out: LC50 (50% lethal concentration)
Experimental: as §1, §2, §3

Thrips palmi = experiment: Test on Thrips palmi (potted eggplants, spray); conditions: eggplants in pots, not sprayed = 100
Experimental: An emulsifiable emulsion prepared as in Formulation Example 3 was diluted with water to a predetermined concentration. The dilution was sprayed on eggplants which were grown in pots and on which Thrips palmi was parasitic, so that the dilution fully dripped on the plant leaves. The number of dead insects was examined at predetermined dates, and the corrected density indices of the test compounds were calculated. For each area, the test was repeated three times.

CCN(C(=O)C(C)(C)c1ccc(Cl)cc1)c1ccc(Br)cc1 [compound 10, alpha,alpha-dimethyl-p-chlorophenylaceto-N-ethyl-p-bromanilide]
Corrected density index After 3 days ([1]; 250 ppm): 5
Corrected density index After 7 days ([1]; 250 ppm): 0
Corrected density index After 14 days ([1]; 250 ppm): 0
LC50 ([2]; Plutella xylostella, 72 h): 48 µg/mL (≈ 126 µM)
LC50 ([3]; Plutella xylostella, 72 h): 46 µg/mL (≈ 121 µM)
Corrected density index After 1 day (Thrips palmi; 250 ppm): 12
Corrected density index After 3 days (Thrips palmi; 250 ppm): 12
Corrected density index After 7 days (Thrips palmi; 250 ppm): 11
Corrected density index After 1 day (Thrips palmi; 500 ppm): 7
Corrected density index After 3 days (Thrips palmi; 500 ppm): 1
Corrected density index After 7 days (Thrips palmi; 500 ppm): 4

CC(C)(C(=O)Nc1ccc(Br)cc1)c1ccc(Cl)cc1 [Compound No. 3]
Corrected density index After 3 days ([1]; 250 ppm): 7
Corrected density index After 7 days ([1]; 250 ppm): 2
Corrected density index After 14 days ([1]; 250 ppm): 3
LC50 ([2]; Plutella xylostella, 72 h): 57 µg/mL (≈ 162 µM)
LC50 ([3]; Plutella xylostella, 72 h): 51 µg/mL (≈ 145 µM)
Corrected density index After 1 day (Thrips palmi; 250 ppm): 16
Corrected density index After 3 days (Thrips palmi; 250 ppm): 8
Corrected density index After 7 days (Thrips palmi; 250 ppm): 14
Corrected density index After 1 day (Thrips palmi; 500 ppm): 9
Corrected density index After 3 days (Thrips palmi; 500 ppm): 3
Corrected density index After 7 days (Thrips palmi; 500 ppm): 3

CC(C)(C(=O)Nc1ccc(F)cc1)c1ccc(Cl)cc1 [compound 1]
LC50 ([2]; Plutella xylostella, 72 h): 126 µg/mL (≈ 432 µM)
LC50 ([3]; Plutella xylostella, 72 h): 123 µg/mL (≈ 422 µM)

CC(C)(C(=O)Nc1ccc(C(F)(F)F)cc1)c1ccc(F)cc1 [compound 12]
LC50 ([2]; Plutella xylostella, 72 h): 95 µg/mL (≈ 292 µM)
LC50 ([3]; Plutella xylostella, 72 h): 110 µg/mL (≈ 338 µM)

CCN(C(=O)C(C)(C)c1ccc(F)cc1)c1ccc(Cl)cc1 [compound 13]
LC50 ([2]; Plutella xylostella, 72 h): 74 µg/mL (≈ 231 µM)
LC50 ([3]; Plutella xylostella, 72 h): 73 µg/mL (≈ 228 µM)

COP(=O)(NC(C)=O)SC (centres unmarked) [Acephate, O,S--dimethyl N--acetylphosphoramidothiolate, reference compound]
Corrected density index After 3 days ([1]; 500 ppm): 8
Corrected density index After 7 days ([1]; 500 ppm): 12
Corrected density index After 14 days ([1]; 500 ppm): 15
LC50 ([2]; Plutella xylostella, 72 h): 178 µg/mL (≈ 972 µM)
LC50 ([3]; Plutella xylostella, 72 h): 878 µg/mL (≈ 4790 µM)

CN(C(=O)C(C)(C)c1ccccc1F)c1ccc(Cl)cc1 [compound 18]
LC50 ([2]; Plutella xylostella, 72 h): 213 µg/mL (≈ 697 µM)
LC50 ([3]; Plutella xylostella, 72 h): 211 µg/mL (≈ 690 µM)

COP(=O)(OC)OC=C(Cl)Cl [DDVP, 2,2-dichlorovinyl dimethyl phosphate, reference compound]
Corrected density index After 3 days ([1]; 500 ppm): 15
Corrected density index After 7 days ([1]; 500 ppm): 52
Corrected density index After 14 days ([1]; 500 ppm): 86
LC50 ([2]; sensitive Plutella xylostella, 3rd-instar larvae, 72 hours, 25° C., wettable powder dilution, method of Bliss): 103 µg/mL
LC50 ([3]; resistant Plutella xylostella, 3rd-instar larvae, 72 hours, 25° C., wettable powder dilution, method of Bliss): 1020 µg/mL

CC(C)(C(=O)Nc1ccc(C(F)(F)F)cc1)c1ccccc1F [compound 17]
LC50 ([2]; Plutella xylostella, 72 h): 281 µg/mL (≈ 864 µM)
LC50 ([3]; Plutella xylostella, 72 h): 256 µg/mL (≈ 787 µM)

CCN(C(=O)C(C)(C)c1ccc(F)cc1)c1ccc(Br)cc1 [compound 14]
LC50 ([2]; Plutella xylostella, 72 h): 88 µg/mL (≈ 242 µM)
LC50 ([3]; Plutella xylostella, 72 h): 93 µg/mL (≈ 255 µM)

CCCN(C(=O)C(C)(C)c1ccc(Cl)cc1)c1ccc(Cl)cc1 [compound 8]
LC50 ([2]; Plutella xylostella, 72 h): 198 µg/mL (≈ 565 µM)
LC50 ([3]; Plutella xylostella, 72 h): 204 µg/mL (≈ 582 µM)

CC(C)(C(=O)Nc1ccc(Cl)cc1)c1ccc(Cl)cc1 [compound 2, alpha,alpha-dimethyl-p-chlorophenylaceto-p-chloranilide]
Corrected density index After 3 days ([1]; 250 ppm): 10
Corrected density index After 7 days ([1]; 250 ppm): 5
Corrected density index After 14 days ([1]; 250 ppm): 2
LC50 ([2]; Plutella xylostella, 72 h): 101 µg/mL (≈ 328 µM)
LC50 ([3]; Plutella xylostella, 72 h): 110 µg/mL (≈ 357 µM)
Corrected density index After 1 day (Thrips palmi; 250 ppm): 16
Corrected density index After 3 days (Thrips palmi; 250 ppm): 14
Corrected density index After 7 days (Thrips palmi; 250 ppm): 14
Corrected density index After 1 day (Thrips palmi; 500 ppm): 20
Corrected density index After 3 days (Thrips palmi; 500 ppm): 10
Corrected density index After 7 days (Thrips palmi; 500 ppm): 12

CC(C)(C(=O)Nc1ccc(Cl)cc1)c1ccc(Cl)cc1Cl [compound 19]
LC50 ([2]; Plutella xylostella, 72 h): 119 µg/mL (≈ 347 µM)
LC50 ([3]; Plutella xylostella, 72 h): 106 µg/mL (≈ 309 µM)

CC(C)(C(=O)Nc1ccc(F)cc1)c1ccc(Cl)cc1Cl [compound 20]
LC50 ([2]; Plutella xylostella, 72 h): 122 µg/mL (≈ 374 µM)
LC50 ([3]; Plutella xylostella, 72 h): 128 µg/mL (≈ 392 µM)

CC(C)(C(=O)Nc1ccc(C(F)(F)F)cc1)c1ccc(Cl)cc1 [Compound No. 4]
Corrected density index After 3 days ([1]; 250 ppm): 7
Corrected density index After 7 days ([1]; 250 ppm): 1
Corrected density index After 14 days ([1]; 250 ppm): 0
LC50 ([2]; Plutella xylostella, 72 h): 95 µg/mL (≈ 278 µM)
LC50 ([3]; Plutella xylostella, 72 h): 96 µg/mL (≈ 281 µM)
Corrected density index After 1 day (Thrips palmi; 250 ppm): 19
Corrected density index After 3 days (Thrips palmi; 250 ppm): 8
Corrected density index After 7 days (Thrips palmi; 250 ppm): 11
Corrected density index After 1 day (Thrips palmi; 500 ppm): 12
Corrected density index After 3 days (Thrips palmi; 500 ppm): 4
Corrected density index After 7 days (Thrips palmi; 500 ppm): 6

CCCCN(C(=O)C(C)(C)c1ccc(Cl)cc1)c1ccc(Cl)cc1 [compound 9]
LC50 ([2]; Plutella xylostella, 72 h): 372 µg/mL (≈ 1020 µM)
LC50 ([3]; Plutella xylostella, 72 h): 365 µg/mL (≈ 1000 µM)

CC(C)(C(=O)Nc1ccc(Cl)cc1)c1ccc(Br)cc1 [compound 15]
LC50 ([2]; Plutella xylostella, 72 h): 137 µg/mL (≈ 388 µM)
LC50 ([3]; Plutella xylostella, 72 h): 129 µg/mL (≈ 366 µM)

CCC(C)c1ccccc1OC(=O)NC (centres unmarked) [BPMC, 2sec. butylphenylN--methyl carbamate, reference compound]
Corrected density index After 1 day (Thrips palmi; 250 ppm): 7
Corrected density index After 3 days (Thrips palmi; 250 ppm): 35
Corrected density index After 7 days (Thrips palmi; 250 ppm): 57
Corrected density index After 1 day (Thrips palmi; 500 ppm): 2
Corrected density index After 3 days (Thrips palmi; 500 ppm): 15
Corrected density index After 7 days (Thrips palmi; 500 ppm): 45

CCN(C(=O)C(C)(C)c1ccc(Cl)cc1)c1ccc(Cl)cc1 [Compound No. 7]
Corrected density index After 3 days ([1]; 250 ppm): 4
Corrected density index After 7 days ([1]; 250 ppm): 0
Corrected density index After 14 days ([1]; 250 ppm): 0
LC50 ([2]; Plutella xylostella, 72 h): 51 µg/mL (≈ 152 µM)
LC50 ([3]; Plutella xylostella, 72 h): 53 µg/mL (≈ 158 µM)
Corrected density index After 1 day (Thrips palmi; 250 ppm): 16
Corrected density index After 3 days (Thrips palmi; 250 ppm): 9
Corrected density index After 7 days (Thrips palmi; 250 ppm): 13
Corrected density index After 1 day (Thrips palmi; 500 ppm): 10
Corrected density index After 3 days (Thrips palmi; 500 ppm): 2
Corrected density index After 7 days (Thrips palmi; 500 ppm): 3

CC(C)(C(=O)Nc1ccc(C#N)cc1)c1ccc(Cl)cc1 [compound 5]
LC50 ([2]; Plutella xylostella, 72 h): 97 µg/mL (≈ 325 µM)
LC50 ([3]; Plutella xylostella, 72 h): 90 µg/mL (≈ 301 µM)

CC(C)(C(=O)Nc1ccc(Cl)cc1)c1ccccc1F [compound 16]
LC50 ([2]; Plutella xylostella, 72 h): 320 µg/mL (≈ 1100 µM)
LC50 ([3]; Plutella xylostella, 72 h): 331 µg/mL (≈ 1130 µM)

CN(C(=O)C(C)(C)c1ccc(Cl)cc1)c1ccc(Cl)cc1 [compound 6]
LC50 ([2]; Plutella xylostella, 72 h): 61 µg/mL (≈ 189 µM)
LC50 ([3]; Plutella xylostella, 72 h): 60 µg/mL (≈ 186 µM)

CC(C)(C(=O)Nc1ccc(Cl)cc1)c1ccc(F)cc1 [compound 11]
LC50 ([2]; Plutella xylostella, 72 h): 107 µg/mL (≈ 367 µM)
LC50 ([3]; Plutella xylostella, 72 h): 111 µg/mL (≈ 380 µM)
